Measurements taken from PubChem BioAssay AID1963978 (Molecular Pharmacology Branch, DTP, NCI, 2024).

System: 616215-338-R-J1-PDC spheroids with HUVEC/MSC, viability
Assay: Anticancer human tumor 616215-338-R-J1-PDC patient-derived colon adenocarcinoma cell line growth inhibition [PI3K]
Settings: for viability, T/C: stronger effect = lower value
In short: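 Agents were dosed from a top concentration near clinical Cmax (otherwise 10 microM) in half-log decrements, alone or combined with PI3K inhibitors. The spheroids contain tumor cells plus endothelial (HUVEC) and MSC stroma; viability is measured.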

[1] = curve of first compound, second compound 0.0316 µM
[2] = curve of first compound, second compound 0.1 µM
[3] = curve of first compound, second compound 0.316 µM
[4] = curve of first compound, second compound 1 µM
[5] = second compound 0.0316 µM, first compound 0.0316 µM
[6] = second compound 0.0316 µM, first compound 0.1 µM
[7] = second compound 0.1 µM, first compound 0.0316 µM
[8] = second compound 0.1 µM, first compound 0.1 µM
[9] = second compound 0.316 µM, first compound 0.0316 µM
[10] = second compound 0.316 µM, first compound 0.1 µM
[11] = second compound 1 µM, first compound 0.0316 µM
[12] = second compound 1 µM, first compound 0.1 µM
[13] = curve of first compound, second compound 0.00316 µM
[14] = curve of first compound, second compound 0.01 µM
[15] = second compound 0.00316 µM, first compound 0.0316 µM
[16] = second compound 0.00316 µM, first compound 0.1 µM
[17] = second compound 0.00316 µM, first compound 0.316 µM
[18] = second compound 0.00316 µM, first compound 1 µM
[19] = second compound 0.00316 µM, first compound 3.16 µM
[20] = second compound 0.00316 µM, first compound 10 µM
[21] = second compound 0.01 µM, first compound 0.0316 µM
[22] = second compound 0.01 µM, first compound 0.1 µM
[23] = second compound 0.01 µM, first compound 0.316 µM
[24] = second compound 0.01 µM, first compound 1 µM
[25] = second compound 0.01 µM, first compound 3.16 µM
[26] = second compound 0.01 µM, first compound 10 µM
[27] = second compound 0.0316 µM, first compound 0.316 µM
[28] = second compound 0.0316 µM, first compound 1 µM
[29] = second compound 0.0316 µM, first compound 3.16 µM
[30] = second compound 0.0316 µM, first compound 10 µM
[31] = second compound 0.1 µM, first compound 0.316 µM
[32] = second compound 0.1 µM, first compound 1 µM
[33] = second compound 0.1 µM, first compound 3.16 µM
[34] = second compound 0.1 µM, first compound 10 µM
[35] = second compound 0.316 µM, first compound 0.316 µM
[36] = second compound 0.316 µM, first compound 1 µM
[37] = second compound 0.316 µM, first compound 3.16 µM
[38] = second compound 0.316 µM, first compound 10 µM
[39] = second compound 1 µM, first compound 0.316 µM
[40] = second compound 1 µM, first compound 1 µM
[41] = second compound 1 µM, first compound 3.16 µM
[42] = second compound 1 µM, first compound 10 µM
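Further: spheroids exposed to agents for seven days before the viability read.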

## CC(=O)c1c(C)c2cnc(Nc3ccc(N4CCNCC4)cn3)nc2n(C2CCCC2)c1=O + CC(Nc1ncnc2nc[nH]c12)c1cc2cccc(Cl)c2c(=O)n1-c1ccccc1
[1]
  IC50: > 0.1 µM
[2]
  IC50: > 0.1 µM
[3]
  IC50: > 0.1 µM
[4]
  IC50: > 0.1 µM
Curve of first compound, second compound 3.16 µM
  IC50: > 0.1 µM
Curve of first compound, second compound 10 µM
  IC50: > 0.1 µM
Second compound 0.0316 µM, first compound 0.000316 µM
  viability, T/C: 106%
Second compound 0.0316 µM, first compound 0.001 µM
  viability, T/C: 104%
Second compound 0.0316 µM, first compound 0.00316 µM
  viability, T/C: 93.2%
Second compound 0.0316 µM, first compound 0.01 µM
  viability, T/C: 93.3%
[5]
  viability, T/C: 92.5%
[6]
  viability, T/C: 102%
Second compound 0.1 µM, first compound 0.000316 µM
  viability, T/C: 98.7%
Second compound 0.1 µM, first compound 0.001 µM
  viability, T/C: 105%
Second compound 0.1 µM, first compound 0.00316 µM
  viability, T/C: 99.6%
Second compound 0.1 µM, first compound 0.01 µM
  viability, T/C: 106%
[7]
  viability, T/C: 104%
[8]
  viability, T/C: 118%
Second compound 0.316 µM, first compound 0.000316 µM
  viability, T/C: 110%
Second compound 0.316 µM, first compound 0.001 µM
  viability, T/C: 95.2%
Second compound 0.316 µM, first compound 0.00316 µM
  viability, T/C: 98.4%
Second compound 0.316 µM, first compound 0.01 µM
  viability, T/C: 92.3%
[9]
  viability, T/C: 106%
[10]
  viability, T/C: 114%
Second compound 1 µM, first compound 0.000316 µM
  viability, T/C: 98.2%
Second compound 1 µM, first compound 0.001 µM
  viability, T/C: 104%
Second compound 1 µM, first compound 0.00316 µM
  viability, T/C: 99.5%
Second compound 1 µM, first compound 0.01 µM
  viability, T/C: 107%
[11]
  viability, T/C: 113%
[12]
  viability, T/C: 110%
Second compound 3.16 µM, first compound 0.000316 µM
  viability, T/C: 115%
Second compound 3.16 µM, first compound 0.001 µM
  viability, T/C: 88.1%
Second compound 3.16 µM, first compound 0.00316 µM
  viability, T/C: 99.2%
Second compound 3.16 µM, first compound 0.01 µM
  viability, T/C: 112%
Second compound 3.16 µM, first compound 0.0316 µM
  viability, T/C: 101%
Second compound 3.16 µM, first compound 0.1 µM
  viability, T/C: 103%
Second compound 10 µM, first compound 0.000316 µM
  viability, T/C: 97.8%
Second compound 10 µM, first compound 0.001 µM
  viability, T/C: 94%
Second compound 10 µM, first compound 0.00316 µM
  viability, T/C: 122%
Second compound 10 µM, first compound 0.01 µM
  viability, T/C: 118%
Second compound 10 µM, first compound 0.0316 µM
  viability, T/C: 104%
Second compound 10 µM, first compound 0.1 µM
  viability, T/C: 90.9%

## CCCS(=O)(=O)Nc1ccc(F)c(C(=O)c2c[nH]c3ncc(-c4ccc(Cl)cc4)cc23)c1F + COc1c(OCCCN2CCOCC2)ccc2c3n(c(=NC(=O)c4cnc(N)nc4)nc12)CCN3
[13]
  IC50: 4.83 µM
[14]
  IC50: 5.11 µM
[1]
  IC50: 4.93 µM
[2]
  IC50: 2.86 µM
[3]
  IC50: < 0.0316 µM
[4]
  IC50: < 0.0316 µM
[15]
  viability, T/C: 91.8%
[16]
  viability, T/C: 96.1%
[17]
  viability, T/C: 99%
[18]
  viability, T/C: 97.9%
[19]
  viability, T/C: 77.9%
[20]
  viability, T/C: 2.29%
[21]
  viability, T/C: 105%
[22]
  viability, T/C: 104%
[23]
  viability, T/C: 98.3%
[24]
  viability, T/C: 94.7%
[25]
  viability, T/C: 84.9%
[26]
  viability, T/C: 3.47%
[5]
  viability, T/C: 105%
[6]
  viability, T/C: 107%
[27]
  viability, T/C: 120%
[28]
  viability, T/C: 106%
[29]
  viability, T/C: 77%
[30]
  viability, T/C: 7.26%
[7]
  viability, T/C: 99%
[8]
  viability, T/C: 92.8%
[31]
  viability, T/C: 87.3%
[32]
  viability, T/C: 93.7%
[33]
  viability, T/C: 45.9%
[34]
  viability, T/C: 9.33%
[9]
  viability, T/C: 53.8%
[10]
  viability, T/C: 35.7%
[35]
  viability, T/C: 38.9%
[36]
  viability, T/C: 38.5%
[37]
  viability, T/C: 27%
[38]
  viability, T/C: 5.18%
[11]
  viability, T/C: 23.3%
[12]
  viability, T/C: 29.3%
[39]
  viability, T/C: 21.3%
[40]
  viability, T/C: 20.1%
[41]
  viability, T/C: 18.7%
[42]
  viability, T/C: 3.73%

## C=CC(=O)N1CCN(c2nc(=O)n(-c3c(C)ccnc3C(C)C)c3nc(-c4c(O)cccc4F)c(F)cc23)C(C)C1 (configuration not stated)
Compound 0.0316 µM
  viability, T/C: 96.2% [middle of 4 runs]
Compound 0.1 µM
  viability, T/C: 92% [middle of 4 runs]
Compound 0.316 µM
  viability, T/C: 99% [middle of 4 runs]
Compound 1 µM
  viability, T/C: 99.8% [middle of 4 runs]
Compound 3.16 µM
  viability, T/C: 93% [middle of 4 runs]
Curve of compound
  IC50: > 10 µM

## CC(C)NCC(C(=O)N1CCN(c2ncnc3c2C(C)CC3O)CC1)c1ccc(Cl)cc1 (configuration not stated) + CC(Nc1ccc2c(c1)OCCn1cc(N3C(=O)OCC3C(F)F)nc1-2)C(N)=O
[13]
  IC50: 6.44 µM
[14]
  IC50: 5.88 µM
[1]
  IC50: 5.98 µM
[2]
  IC50: 4.99 µM
[3]
  IC50: 5.13 µM
[4]
  IC50: 3.76 µM
[15]
  viability, T/C: 86.5%
[16]
  viability, T/C: 95.8%
[17]
  viability, T/C: 95.8%
[18]
  viability, T/C: 98.2%
[19]
  viability, T/C: 69.9%
[20]
  viability, T/C: 37.7%
[21]
  viability, T/C: 88.5%
[22]
  viability, T/C: 102%
[23]
  viability, T/C: 90.4%
[24]
  viability, T/C: 110%
[25]
  viability, T/C: 70%
[26]
  viability, T/C: 32.9%
[5]
  viability, T/C: 97.7%
[6]
  viability, T/C: 104%
[27]
  viability, T/C: 98%
[28]
  viability, T/C: 98.1%
[29]
  viability, T/C: 65.8%
[30]
  viability, T/C: 37.2%
[7]
  viability, T/C: 95%
[8]
  viability, T/C: 94.6%
[31]
  viability, T/C: 95%
[32]
  viability, T/C: 93.6%
[33]
  viability, T/C: 65.7%
[34]
  viability, T/C: 26.1%
[9]
  viability, T/C: 110%
[10]
  viability, T/C: 99.9%
[35]
  viability, T/C: 95.5%
[36]
  viability, T/C: 103%
[37]
  viability, T/C: 65.9%
[38]
  viability, T/C: 28%
[11]
  viability, T/C: 106%
[12]
  viability, T/C: 95.5%
[39]
  viability, T/C: 105%
[40]
  viability, T/C: 88.9%
[41]
  viability, T/C: 54%
[42]
  viability, T/C: 29.3%
